The values that follow come from paper PMC3914206.

Assay [1] has as its target T1, panel of 442 kinases (Homo sapiens, UniProt P36888, D835Y).
T1 construct: purchased KINOMEscan
T1 sequence (P36888 27-993 D835Y): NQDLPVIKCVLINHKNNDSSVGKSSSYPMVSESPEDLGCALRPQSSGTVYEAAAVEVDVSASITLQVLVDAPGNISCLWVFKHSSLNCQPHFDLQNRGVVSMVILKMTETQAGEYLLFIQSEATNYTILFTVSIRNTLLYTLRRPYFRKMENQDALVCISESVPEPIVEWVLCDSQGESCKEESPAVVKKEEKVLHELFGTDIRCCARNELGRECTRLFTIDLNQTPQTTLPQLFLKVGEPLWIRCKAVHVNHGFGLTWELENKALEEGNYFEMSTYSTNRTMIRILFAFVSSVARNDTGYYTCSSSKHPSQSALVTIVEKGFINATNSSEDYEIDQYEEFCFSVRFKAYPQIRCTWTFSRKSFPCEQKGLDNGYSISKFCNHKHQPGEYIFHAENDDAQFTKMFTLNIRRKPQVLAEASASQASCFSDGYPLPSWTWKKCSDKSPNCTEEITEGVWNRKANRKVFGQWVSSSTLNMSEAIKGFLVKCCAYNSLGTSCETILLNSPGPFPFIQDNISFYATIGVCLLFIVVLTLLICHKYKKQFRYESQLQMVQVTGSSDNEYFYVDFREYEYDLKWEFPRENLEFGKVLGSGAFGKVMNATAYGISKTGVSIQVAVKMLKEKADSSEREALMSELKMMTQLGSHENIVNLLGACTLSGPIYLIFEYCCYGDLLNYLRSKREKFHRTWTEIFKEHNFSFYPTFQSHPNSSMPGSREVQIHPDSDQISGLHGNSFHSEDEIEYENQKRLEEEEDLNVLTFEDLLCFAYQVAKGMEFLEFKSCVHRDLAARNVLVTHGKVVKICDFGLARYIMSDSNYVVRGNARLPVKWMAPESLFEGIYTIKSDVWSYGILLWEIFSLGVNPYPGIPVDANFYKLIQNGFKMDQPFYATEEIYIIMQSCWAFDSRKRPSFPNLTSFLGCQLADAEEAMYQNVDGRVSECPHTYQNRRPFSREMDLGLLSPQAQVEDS
In kind it is binding. The note with it: Compound Concentration 10 µM. The source says: (§1) We assessed the selectivity of members of this scaffold using the KINOMEscan methodology across a near comprehensive panel of 442 kinases [[18,27]].

The target of assay [2] is T2, panel of 442 kinases (Homo sapiens, UniProt P78356).
T2 construct: purchased KINOMEscan
T2 sequence (P78356 1-416): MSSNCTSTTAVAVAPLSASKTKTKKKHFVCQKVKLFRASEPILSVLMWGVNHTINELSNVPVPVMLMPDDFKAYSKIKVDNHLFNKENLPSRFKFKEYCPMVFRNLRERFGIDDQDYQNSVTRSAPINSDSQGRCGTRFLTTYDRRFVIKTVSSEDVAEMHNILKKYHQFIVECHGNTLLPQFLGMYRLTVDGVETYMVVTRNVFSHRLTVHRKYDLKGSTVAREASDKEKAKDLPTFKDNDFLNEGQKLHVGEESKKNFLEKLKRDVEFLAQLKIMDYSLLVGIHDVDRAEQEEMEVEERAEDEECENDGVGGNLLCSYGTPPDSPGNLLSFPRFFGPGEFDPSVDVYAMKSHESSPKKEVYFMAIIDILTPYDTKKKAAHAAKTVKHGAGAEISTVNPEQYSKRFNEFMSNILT
In kind it is binding. The settings on record: Compound Concentration 10 µM.
Text: as §1

For the compound `CCOc1cc(C(=O)N2CCC(N3CCN(C)CC3)CC2)ccc1Nc1ncc2c(n1)N(C1CCCC1)c1ccccc1C(=O)N2C` [Compound 26], the “KINOMEscan: FLT3(D835Y)” value on panel of 442 kinases [1] was found to be 100. The “KINOMEscan: PIP5K2B” value on panel of 442 kinases [2] was determined as 100.
As to `COc1cc(C(=O)N2CCC(N3CCN(C)CC3)CC2)ccc1Nc1ncc2c(n1)N(C)c1ccccc1C(=O)N2C` [15 (LRRK2-IN-1)], the “KINOMEscan: FLT3(D835Y)” value on panel of 442 kinases [1] was found to be 100. For the same compound, the “KINOMEscan: PIP5K2B” value on panel of 442 kinases [2] turned out to be 100.
For `COc1cc(C(=O)N2CCC(N3CCN(C)CC3)CC2)ccc1Nc1ncc2c(n1)N(C1CCCC1)c1ccccc1C(=O)N2C` [Compound 25, 11-cyclopentyl-2-((2-methoxy-4-(4-(4-methylpiperazin-1-yl)piperidine-1-carbonyl)phenyl)amino)-5-methyl-5H-benzo[e]pyrimido[5,4-b][1,4]diazepin-6(11H)-one], the “KINOMEscan: FLT3(D835Y)” value at panel of 442 kinases [1] is 100. Also, the “KINOMEscan: PIP5K2B” value on panel of 442 kinases [2] turned out to be 100.
